From PubChem BioAssay (NCI)
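Each compound was tested at five concentrations against cells in 96-well plates for 48 hours. Abbreviation: GI50, concentration required for 50% inhibition of growth. TGI marks complete inhibition of growth.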

Legend:
Assay in all cases: DTP human tumour cell line panel, 48 h
[1] = system: SR leukemia
[2] = system: M14 melanoma
[3] = system: TK-10 renal
[4] = system: LOX IMVI melanoma
[5] = system: HS 578T breast
[6] = system: SF-295 CNS
[7] = system: SNB-75 CNS
[8] = system: UACC-257 melanoma
[9] = system: HL-60(TB) leukemia
[10] = system: UO-31 renal
[11] = system: COLO 205 colon
[12] = system: A498 renal
[13] = system: RXF 393 renal
[14] = system: RPMI-8226 leukemia
[15] = system: CCRF-CEM leukemia
[16] = system: K-562 leukemia
[17] = system: MOLT-4 leukemia
[18] = system: KM12 colon
[19] = system: NCI-H23 lung
[20] = system: SK-MEL-28 melanoma
[21] = system: ACHN renal
[22] = system: SK-MEL-5 melanoma
[23] = system: MDA-MB-435
[24] = system: SK-MEL-2 melanoma
[25] = system: PC-3 prostate
[26] = system: EKVX NSCLC
[27] = system: MDA-MB-231 breast
[28] = system: SW-620 colon
[29] = system: HOP-62 NSCLC
[30] = system: SF-268 CNS
[31] = system: 786-0 renal
[32] = system: MCF7 breast
[33] = system: HCT-15 colon
[34] = system: UACC-62 melanoma
[35] = system: DU-145 prostate
[36] = system: U251 CNS
[37] = system: T-47D breast
[38] = system: IGROV1 ovarian
[39] = system: SK-OV-3 ovarian
[40] = system: CAKI-1 renal
[41] = system: HOP-92 NSCLC
[42] = system: SF-539 CNS
[43] = system: HCC-2998 colon
[44] = system: OVCAR-4 ovarian
[45] = system: SNB-19 CNS
[46] = system: NCI-H460 lung
[47] = system: HCT-116 colon
[48] = system: NCI-H226 lung
[49] = system: OVCAR-3 ovarian
[50] = system: MALME-3M melanoma
[51] = system: OVCAR-8 ovarian
[52] = system: NCI-H522 lung
[53] = system: A549 NSCLC
[54] = system: HT29 colon
[55] = system: SN12C renal
[56] = system: OVCAR-5 ovarian
[57] = system: BT-549 breast

CC1=C(C(N)=O)C(c2ccncc2)C(C#N)C(=O)N1 (stereo not given)
TGI [1]: > 100 µM | TGI [2]: > 100 µM | TGI [3]: > 100 µM | TGI [4]: > 100 µM | TGI [5]: > 100 µM | TGI [6]: > 100 µM | TGI [7]: > 100 µM | TGI [8]: > 100 µM | TGI [9]: > 100 µM | TGI [10]: > 100 µM | TGI [11]: > 100 µM | TGI [12]: > 100 µM | TGI [13]: > 100 µM | TGI [14]: > 100 µM | TGI [15]: > 100 µM | TGI [16]: > 100 µM | TGI [17]: > 100 µM | TGI [18]: > 100 µM | TGI [19]: > 100 µM | TGI [20]: > 100 µM | TGI [21]: > 100 µM | TGI [22]: > 100 µM | TGI [23]: > 100 µM | TGI [24]: > 100 µM | TGI [25]: > 100 µM | TGI [26]: > 100 µM | TGI [27]: > 100 µM | TGI [28]: > 100 µM | TGI [29]: > 100 µM | TGI [30]: > 100 µM | TGI [31]: > 100 µM | TGI [32]: > 100 µM | TGI [33]: > 100 µM | TGI [34]: > 100 µM | TGI [35]: > 100 µM | TGI [36]: > 100 µM | TGI [37]: > 100 µM | TGI [38]: > 100 µM | TGI [39]: > 100 µM | TGI [40]: > 100 µM | TGI [41]: > 100 µM | TGI [42]: > 100 µM | TGI [43]: > 100 µM | TGI [44]: > 100 µM | TGI [45]: > 100 µM | TGI [46]: > 100 µM | TGI [47]: > 100 µM

O=c1[nH]c(-c2ccncc2)nc2sc3c(c12)CCCCCC3
GI50 [2]: > 100 µM | TGI [2]: > 100 µM | GI50 [48]: > 100 µM | TGI [48]: > 100 µM | GI50 [3]: > 100 µM | TGI [3]: > 100 µM | GI50 [4]: > 100 µM | TGI [4]: > 100 µM | GI50 [5]: > 100 µM | TGI [5]: > 100 µM | GI50 [7]: 2710 nM | TGI [7]: > 100 µM | GI50 [49]: > 100 µM | TGI [49]: > 100 µM | GI50 [8]: > 100 µM | TGI [8]: > 100 µM | GI50 [9]: > 100 µM | TGI [9]: > 100 µM | GI50 [10]: > 100 µM | TGI [10]: > 100 µM | GI50 [11]: > 100 µM | TGI [11]: > 100 µM | GI50 [12]: > 100 µM | TGI [12]: > 100 µM | GI50 [50]: > 100 µM | TGI [50]: > 100 µM | GI50 [13]: > 100 µM | TGI [13]: > 100 µM | GI50 [14]: > 100 µM | TGI [14]: > 100 µM | GI50 [51]: > 100 µM | TGI [51]: > 100 µM | GI50 [15]: > 100 µM | TGI [15]: > 100 µM | GI50 [16]: > 100 µM | TGI [16]: > 100 µM | GI50 [17]: > 100 µM | TGI [17]: > 100 µM | GI50 [18]: > 100 µM | TGI [18]: > 100 µM | GI50 [19]: > 100 µM | TGI [19]: > 100 µM | GI50 [20]: > 100 µM | TGI [20]: > 100 µM | GI50 [21]: > 100 µM | TGI [21]: > 100 µM | GI50 [22]: > 100 µM | TGI [22]: > 100 µM | GI50 [23]: > 100 µM | TGI [23]: > 100 µM | GI50 [24]: > 100 µM | TGI [24]: > 100 µM | GI50 [25]: > 100 µM | TGI [25]: > 100 µM | GI50 [27]: > 100 µM | TGI [27]: > 100 µM | GI50 [28]: > 100 µM | TGI [28]: > 100 µM | GI50 [29]: > 100 µM | TGI [29]: > 100 µM | GI50 [30]: > 100 µM | TGI [30]: > 100 µM | GI50 [52]: > 100 µM | TGI [52]: > 100 µM | GI50 [53]: > 100 µM | TGI [53]: > 100 µM | GI50 [31]: > 100 µM | TGI [31]: > 100 µM | GI50 [32]: > 100 µM | TGI [32]: > 100 µM | GI50 [33]: > 100 µM | TGI [33]: > 100 µM | GI50 [54]: > 100 µM | TGI [54]: > 100 µM | GI50 [34]: > 100 µM | TGI [34]: > 100 µM | GI50 [35]: > 100 µM | TGI [35]: > 100 µM | GI50 [36]: > 100 µM | TGI [36]: > 100 µM | GI50 [38]: > 100 µM | TGI [38]: > 100 µM | GI50 [40]: > 100 µM | TGI [40]: > 100 µM | GI50 [55]: > 100 µM | TGI [55]: > 100 µM | GI50 [41]: > 100 µM | TGI [41]: > 100 µM | GI50 [42]: > 100 µM | TGI [42]: > 100 µM | GI50 [56]: > 100 µM | TGI [56]: > 100 µM | GI50 [43]: > 100 µM | TGI [43]: > 100 µM | GI50 [57]: > 100 µM | TGI [57]: > 100 µM | GI50 [46]: > 100 µM | TGI [46]: > 100 µM
